PubChem BioAssay (NCI)
“And” between values parts separate entries of the source, which are not always exact repeats. Equal entries are not always repeated.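 Five compound concentrations were applied to cells in 96-well plates for 48 hours; endpoints were derived by simple linear interpolation of the resulting dose-response curve. Abbreviation: GI50, concentration required for 50% inhibition of growth. TGI: total growth inhibition.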

How the values were obtained:
Assay in all cases: NCI anticancer screen, dose series, 48 h
SK-MEL-28 melanoma = tested on: SK-MEL-28 melanoma
A498 renal = tested on: A498 renal
K-562 leukemia = tested on: K-562 leukemia
HCT-116 colon = tested on: HCT-116 colon
NCI-H460 lung = tested on: NCI-H460 lung
NCI-H522 lung = tested on: NCI-H522 lung
SF-295 CNS = tested on: SF-295 CNS
HL-60(TB) leukemia = tested on: HL-60(TB) leukemia
NCI/ADR-RES ovarian = tested on: NCI/ADR-RES ovarian
TK-10 renal = tested on: TK-10 renal

Row | Compound | GI50 (SK-MEL-28 melanoma) | TGI (SK-MEL-28 melanoma) | GI50 (A498 renal) | TGI (A498 renal) | GI50 (K-562 leukemia) | TGI (K-562 leukemia) | GI50 (HCT-116 colon) | TGI (HCT-116 colon) | GI50 (NCI-H460 lung) | TGI (NCI-H460 lung) | GI50 (NCI-H522 lung) | TGI (NCI-H522 lung) | GI50 (SF-295 CNS) | TGI (SF-295 CNS) | GI50 (HL-60(TB) leukemia) | TGI (HL-60(TB) leukemia) | GI50 (NCI/ADR-RES ovarian) | TGI (NCI/ADR-RES ovarian) | GI50 (TK-10 renal) | TGI (TK-10 renal)
1 | CN1CCC(=C(c2ccc(Cl)cc2)c2ccccn2)CC1 | 86100 nM | > 100 µM | 45.8 µM | > 100 µM | 74.7 µM | > 100 µM | 66500 nM | > 100 µM | > 100 µM | > 100 µM | 95.5 µM | > 100 µM | 37600 nM | > 100 µM | 58900 nM | > 100 µM | > 100 µM | > 100 µM | > 100 µM | > 100 µM
2 | O=C(O)C1CC[N-]CC1.O=C(O)C1CC[N-]CC1.[NH2-].[NH2-].[Pt+4] | > 100000 nM | > 100 µM | > 100 µM | > 100 µM | > 100 µM | > 100 µM | > 100000 nM | > 100 µM | > 100 µM | > 100 µM | > 100 µM | > 100 µM | > 100000 nM | > 100 µM | > 100000 nM | > 100 µM | > 100 µM | > 100 µM | > 100 µM | > 100 µM
3 | Cc1[nH]c(N)nc(=S)c1CCCNc1ccccc1 |  | > 100 µM |  | 92.4 µM |  | > 100 µM |  | > 100 µM |  | > 100 µM |  | > 100 µM |  | > 100 µM |  | > 100 µM |  | > 100 µM |  | > 100 µM
4 | Cc1cc2c(C(C)C)c(O)c(O)c(/C=N/O)c2c(O)c1-c1c(C)cc2c(C(C)C)c(O)c(O)c(/C=N/O)c2c1O | 1840 nM | 6.8 µM | 2.54 µM | 10.4 µM | 2.07 µM | 5.96 µM | 2410 nM | 12 µM | 2.19 µM | 6.72 µM | 1.74 µM | 5.47 µM | 2610 nM | 13.3 µM | 2610 nM | 10.6 µM | 3.4 µM | 15.1 µM | 3.13 µM | 13.7 µM
5 | Cn1ccc(S(=O)(=O)N2CCC[C@H](Nc3nccc(-c4c(-c5cccc(O)c5)nc5occn45)n3)C2)n1 | 93.8 nM | 20.5 µM | 6.8 µM | 26.1 µM | 13.9 µM | > 100 µM | 3930 nM | 32.4 µM | 15.5 µM | 59.8 µM | 13 µM | 36.4 µM | 22300 nM | 62.1 µM | 10800 nM | 32.3 µM | > 78.7 µM | > 100 µM | 14.3 µM | 60.2 µM
6 | C=CCc1cc(O)ccc1O | > 100000 nM | > 100 µM | > 100 µM | > 100 µM | 17.7 µM | > 100 µM | 16800 nM | 31.1 µM | 46.8 µM | > 100 µM | 2.49 µM | 11.1 µM | 49500 nM | > 100 µM | 2530 nM | 7.04 µM | 22.7 µM | > 100 µM | 24.9 µM | 69.2 µM
7 | COc1cc2c3c(n(CCCNCCCCN)c(=O)c2cc1OC)-c1cc2c(cc1C3=O)OCO2 | 4490 nM | > 54.2 µM | 5.07 µM | 21 µM | 4.1 µM | > 100 µM | 1850 nM | 15.2 µM | < 0.041 µM | 7.38 µM | 5.64 µM | > 100 µM | 169 nM | 16.5 µM | 335 nM |  | 17.3 µM | > 90.8 µM | 0.773 µM | 10.1 µM
8 | N#C/C(=C\c1ccc(O)c(O)c1)C(=O)NCc1cccc(C(F)(F)F)c1 | 21600 nM | 72.6 µM | 10.4 µM | 26.9 µM | 21.3 µM | > 100 µM | 3790 nM | 17.4 µM | 6.14 µM | 31 µM | 7.71 µM | 63.2 µM | 1970 nM | 15.7 µM | 4730 nM | 92.3 µM | 10.1 µM | 34.6 µM | 1.31 µM | 6.43 µM
9 | C/C=C(/C)C(=O)OC1C=C(CO)C(=O)C(OC(=O)C2(C)OC2C)C1C(C)C (configuration not stated) | 1780 nM | 3.33 µM | 1.74 µM | 3.9 µM | 1.33 µM | 10.8 µM | 1130 nM | 2.48 µM | 2.93 µM | 8.27 µM | 1.07 µM | 2.54 µM | 2620 nM | 8.16 µM | 1160 nM | 6.45 µM | 3.18 µM | 17.4 µM | 1.88 µM | 3.36 µM
10 | CC[C@@]1(O)C(=O)OCc2c1cc1n(c2=O)Cc2cc3cc(O)ccc3nc2-1 | 166 nM and 264 nM | 10 µM and > 38.9 µM | 0.195 µM and 0.0455 µM | 0.703 µM and 0.453 µM | 0.0419 µM and 0.0427 µM | 24.7 µM and > 46.5 µM | 22.8 nM and 17.6 nM | 13.7 µM | 0.0172 µM and < 0.0104 µM | 0.112 µM and 1.07 µM | < 0.0075 µM | 0.103 µM and 0.447 µM | 28.2 nM and 29 nM | 0.799 µM and 3.91 µM | 18.7 nM | 0.135 µM |  | 0.225 µM and 0.109 µM |  | 44.9 µM
11 | Nc1nc(N)c2c(Cl)c(CNc3ccc(Cl)c(Cl)c3)ccc2n1 |  | 18.7 µM |  | 8.68 µM |  | 2.97 µM |  | 12.4 µM |  | 11.4 µM |  | 9.56 µM |  | 12.2 µM |  | 2.75 µM |  | 18.7 µM |  | 12.4 µM
12 | CN1C(=O)[C@@H](CC2CCCC2)N(C2CCCC2)c2nc(Nc3cc(Cl)c(O)c(Cl)c3)ncc21 | 22600 nM | > 100 µM | 35.4 µM | > 100 µM | 14.6 µM | > 100 µM | 13100 nM | 30.4 µM | 23.5 µM | 90.3 µM | 10.8 µM | > 100 µM | 23300 nM | 81.9 µM | 10300 nM | 58.1 µM | 20.7 µM | > 100 µM | 27.2 µM | > 100 µM
13 | CC(=O)NC(CCc1ccc(Cl)c(Cl)c1)c1cccc(O)c(=O)c1 (configuration not stated) | 1070 nM | 12.3 µM | 1.15 µM | 25.8 µM | 0.653 µM | 29.1 µM | 315 nM | 15.2 µM | 0.407 µM | 11.8 µM | 0.488 µM | 11.9 µM | 399 nM | 10 µM | 833 nM | 5.3 µM | 0.338 µM | 4.92 µM | 0.864 µM | > 100 µM
